Measurements as given in patent US20070197657A1, “Method for treating non-inflammatory musculoskeletal pain” (SRZ Properties, Inc., priority 2005, published 2007).
“Also recorded” adds a separate entry of the source.

Assays:
[1] = tested on: muscle pressure hyperalgesia induced by TNF; assay: TNF-induced muscle pressure hyperalgesia (Randall-Selitto, gastrocnemius muscle); format: in vivo, rat; conditions: for reversal of muscular mechanical hyperalgesia (withdrawal threshold to muscle pressure): TNF 1 μg i.m. gastrocnemius, 30 mg/kg
Excerpt: (§1) The model used in this example is applicable to musculoskeletal pain which occurs in fibromyalgia, myofascial pain syndrome or back pain. For comparative purposes, the non-opioid analgesic dipyrone (metamizol) and the anticonvulsants pregabalin and gabapentin were included in the study.
(§2) Adult male Sprague Dawley rats with a body weight of 250 g to 300 g were used (supplier: Charles River, Sulzfeld, Germany). Animals were group-housed (3 animals per cage) and maintained in a room with controlled temperature (21-22° C.) and a reversed light-dark cycle (12 h/12 h) with food and water available ad libitum. All experiments were approved by the Bavarian State animal experimentation committee and carried out in accordance with its regulations.
(§3) Recombinant rat tumor necrosis factor alpha (herein referred to as TNF) was obtained from R&D Systems, Minneapolis, Minn., U.S.A. TNF was diluted in 0.9% NaCl and used in a concentration of 1 μg in 50 μl. Injections were performed in short halothane narcosis with a 30 g needle bilaterally into the gastrocnemius or into the biceps brachii muscle. All rats were used to the behavioral tests before injections and baseline values were recorded over three test days.
Mechanical withdrawal thresholds to muscle pressure were measured with an analgesimeter (Ugo Basile, Comerio, Italy). The rat was allowed to crawl into a sock which helps the rat to relax. The hind limbs were positioned such that an increasing pressure could be applied onto the gastrocnemius muscle (maximum 250 g). The pressure needed to elicit withdrawal was recorded. Means of 3 trials for each hind limb were calculated (interstimulus interval of >30 sec). Only animals with a significant TNF effect were included for further analysis.
Rats were injected with TNF into the gastrocnemius muscle at 2 pm. Eighteen hours later, rats were tested for pressure hyperalgesia pre- and post-administration of the test drug. Rats were tested for pressure hyperalgesia 30 to 60 minutes after drug administration.
(§4) The rats, initially 10 per group, were treated with either 3, 10 or 30 mg/kg lacosamide, 2 mg/kg metamizol, 30 or 100 mg/kg pregabalin, 100 mg/kg gabapentin, or the NaCl vehicle, i.p. (intraperitoneally). Volume of i.p. injections was 0.5 ml. A pilot study was performed to confirm that i.m. (intramuscular) injection of 1 μg TNF into the gastrocnemius muscle was sufficient to induce pressure hyperalgesia.
(§5) Data are shown in graphs displaying means and standard errors of the means (SEM). Pre- and post-treatment data were compared using ANOVA (analysis of variance) and a Tukey post hoc test. Means of treatment groups were compared using a one-way ANOVA and Dunnett's post hoc test. Maximal possible effects (MPE) were calculated for all types of treatment.

[2] = tested on: TNF-induced reduction of grip strength; assay: biceps muscle grip strength after TNF-induced muscle pain; format: in vivo, rat; conditions: for reversal of TNF-induced reduction of grip strength: TNF 1 μg i.m. biceps brachii
Excerpt: as §1, §2, §3
Grip strength of the forelimbs was tested with a digital grip force meter (DFIS series, Chatillon, Greensboro, N.C., U.S.A.). The rat was positioned to grab the grid with the forelimbs and was gently pulled so that the grip strength could be recorded. Means of three trials were calculated. The effect of the TNF treatment was calculated for each animal separately and only animals with a significant TNF effect were included for further analysis.
Rats were injected with TNF into the biceps brachii muscle at 8 am. Six hours later, grip strength of the forelimbs was tested with a digital grip force meter. Test drug was administered, and grip strength was again tested after 30 to 60 minutes.
as §4, §5

[3] = tested on: monosodium iodoacetate-induced tactile allodynia; assay: monosodium iodoacetate-induced tactile allodynia (von Frey filaments); format: in vivo, rat
[4] = tested on: monosodium iodoacetate-induced mechanical hyperalgesia; assay: monosodium iodoacetate-induced mechanical hyperalgesia (Randall-Selitto paw pressure); format: in vivo, rat; conditions: for mechanical hyperalgesia (paw pressure withdrawal threshold): day 7
[5] = tested on: formalin-induced flinching and licking of the affected paw; assay: rat formalin paw test (late phase); format: in vivo
Description: Rats were given an intraplantar injection of 5% formalin (50 μl) into the posterior left paw. This treatment induces a recognizable flinching and licking response of the affected paw in control animals. The number of flinches was counted for 15 minutes, beginning 20 minutes after injection of formalin. The time spent licking the affected paw was also recorded.
Male Rj: Wistar (Han) rats, 10 per group, weighing 100-130 g at the beginning of the experiments were studied per group. The test was performed blind.
Lacosamide (20 mg/kg), gabapentin (50 and 100 mg/kg), combinations of lacosamide (20 mg/kg) with gabapentin (50 and 100 mg/kg), and vehicle were administered i.p. 10 minutes before injection of formalin.
Lacosamide (10 and 20 mg/kg), morphine (2 and 4 mg/kg), combinations of lacosamide (10 and 20 mg/kg) with morphine (2 and 4 mg/kg), and vehicle were administered i.p. 10 minutes before injection of formalin.
Lacosamide (10 mg/kg), duloxetine (8 mg/kg), a combination of lacosamide (10 mg/kg) with duloxetine (8 mg/kg), and vehicle were administered i.p. 10 minutes before injection of formalin.
Lacosamide (10 and 20 mg/kg), memantine (4 and 8 mg/kg), combinations of lacosamide (10 and 20 mg/kg) with memantine (4 and 8 mg/kg), and vehicle were administered i.p. 10 minutes before injection of formalin.
Lacosamide (10 and 20 mg/kg), naproxen (8 and 16 mg/kg), combinations of lacosamide (10 and 20 mg/kg) with […] (8 and 16 mg/kg), and vehicle were administered i.p. 10 minutes before injection of formalin. Morphine (8 mg/kg) was included as a comparative treatment.

[6] = Example 3, lacosamide 20 mg/kg i.p.
[7] = Example 4, lacosamide 10 mg/kg i.p.
[8] = Example 4, lacosamide 20 mg/kg i.p.
[9] = Example 5, lacosamide 10 mg/kg i.p.
[10] = Example 6, lacosamide 10 mg/kg i.p.
[11] = Example 6, lacosamide 20 mg/kg i.p.
[12] = Example 7, lacosamide 10 mg/kg i.p.
[13] = Example 7, lacosamide 20 mg/kg i.p.

In the case of `COC[C@@H](NC(C)=O)C(=O)NCc1ccccc1` [Lacosamide, (R)-2-acetamido-N-benzyl-3-methoxypropionamide], the “MPE (maximal possible effect) on muscle pressure hyperalgesia, versus vehicle” value ([1]; 10 mg/kg i.p.) is reported as “significantly different from vehicle”, the “MPE (maximal possible effect) on muscle pressure hyperalgesia, versus vehicle” value ([1]; 30 mg/kg i.p.) is reported as “significantly different from vehicle” and the “reversal of muscular mechanical hyperalgesia (withdrawal threshold to muscle pressure)” value ([1]; 30 mg/kg i.p.) is reported as “full reversal”. For the same molecule, the “reversal of muscular mechanical hyperalgesia (withdrawal threshold to muscle pressure)” value ([1]; 30 mg/kg i.p., listed as lacosamide) was “complete reversal”, the “effect on muscle pain in comparison to pregabalin and gabapentin” value ([1]; paw pressure test) was “stronger effect” and the “MPE (maximal possible effect) on biceps muscle grip strength, versus vehicle” value ([2]; 10 mg/kg i.p.) was “significantly different from vehicle”. The “MPE (maximal possible effect) on biceps muscle grip strength, versus vehicle” value ([2]; 30 mg/kg i.p.) was “significantly different from vehicle”, the “reversal of TNF-induced reduction of grip strength” value ([2]; 10 mg/kg i.p., 10 mg/kg) was “significant reversal; also recorded: reversed the effect of TNF” and the “reversal of TNF-induced reduction of grip strength” value ([2]; 30 mg/kg i.p.) was “significant reversal”. For the same molecule, the “potency compared with pregabalin and gabapentin” value ([2]; grip strength test) was “more potent”, the “tactile allodynia of iodoacetate-treated rats” value (“tactile allodynia” below) ([3]; day 3, 30 mg/kg (lacosamide p.o., diclofenac s.c.)) was “improved” and the “tactile allodynia” value ([3]; day 7, 30 mg/kg (lacosamide p.o., diclofenac s.c.)) was “improved”. The “tactile allodynia” value ([3]; day 14, 30 mg/kg (lacosamide p.o., diclofenac s.c.)) was “not on day 14”, the “tactile allodynia” value ([3]; lower doses of lacosamide (3, 10 mg/kg p.o.)) was “showed a trend for such improvement” and the “mechanical hyperalgesia (paw pressure withdrawal threshold) compared to iodoacetate/vehicle treated animals” value ([4]; day 3, 3 mg/kg (lacosamide p.o., morphine s.c.)) was “increase in paw pressure withdrawal threshold”. For the same molecule, the “mechanical hyperalgesia (paw pressure withdrawal threshold)” value ([4]; 3 mg/kg (lacosamide p.o., morphine s.c.)) was “reduced mechanical hyperalgesia”, the “mechanical hyperalgesia (paw pressure withdrawal threshold)” value ([4]; 30 mg/kg (lacosamide p.o., diclofenac s.c.)) was “reduced mechanical hyperalgesia” and the “Licking time % change (a): compared with vehicle control” value (“Licking time % change” below) [5, 6] was −34%. The “Licking time (seconds) mean ± SEM” value [5, 6] was 146.9 ± 23.8 s, the “No. of flinches % change (a): compared with vehicle control” value (shortened to “No. of flinches % change”) [5, 6] was −33% and the “No. of flinches mean ± SEM” value [5, 6] was 85.7 ± 14.3. The “decrease in the number of flinches as compared with vehicle controls” value (“decrease in the number of flinches” below) [5, 6] was 33%, the “decrease in the time spent licking as compared with vehicle controls” value [5, 6] was 34% and the “Licking time % change” value [5, 7] was −28%. The “Licking time (seconds) mean ± SEM” value [5, 7] was 210.1 ± 22.7 s, the “No. of flinches % change” value [5, 7] was “+22%” and the “No. of flinches mean ± SEM” value [5, 7] was 182.7 ± 25.9. The “decrease in the time spent licking as compared with vehicle controls” value [5, 7] was 28%, the “increase in the number of flinches as compared with vehicle controls” value [5, 7] was 22% and the “Licking time % change” value [5, 8] was −56%. For the same molecule, the “Licking time (seconds) mean ± SEM” value [5, 8] was 128.2 ± 28.0 s, the “No. of flinches % change” value [5, 8] was −35% and the “No. of flinches mean ± SEM” value [5, 8] was 97.2 ± 16.0. The “decrease in the number of flinches” value [5, 8] was 35%, the “decrease in the time spent licking as compared with vehicle controls” value [5, 8] was 56% and the “Licking time % change” value [5, 9] was −30%. For the same molecule, the “Licking time (seconds) mean ± SEM” value [5, 9] was 185.2 ± 31.7 s, the “No. of flinches % change” value [5, 9] was “+5%” and the “No. of flinches mean ± SEM” value [5, 9] was 158.2 ± 15.6. The “decrease in the time spent licking” value [5, 9] was 30%, the “effects on number of flinches and time spent licking” value [5, 9] was “no significant effects” and the “Licking time % change” value [5, 10] was −4%. The “Licking time (seconds) mean ± SEM” value [5, 10] was 168.5 ± 23.9 s, the “No. of flinches % change” value [5, 10] was −31% and the “No. of flinches mean ± SEM” value [5, 10] was 113.9 ± 23.2. The “decrease in the number of flinches” value [5, 10] was 31%, the “effect on the time spent licking” value [5, 10] was “no clear effects” and the “Licking time % change” value [5, 11] was −52%. The “Licking time (seconds) mean ± SEM” value [5, 11] was 85.1 ± 19.1 s, the “No. of flinches % change” value [5, 11] was −48% and the “No. of flinches mean ± SEM” value [5, 11] was 85.8 ± 14.4. For the same molecule, the “decrease in the number of flinches” value [5, 11] was 48%, the “decrease in the time spent licking” value [5, 11] was 52% and the “Licking time % change” value [5, 12] was −9%. For the same molecule, the “Licking time (seconds) mean ± SEM” value [5, 12] was 174.7 ± 20.4 s, the “No. of flinches % change” value [5, 12] was −13% and the “No. of flinches mean ± SEM” value [5, 12] was 99.2 ± 16.6. The “effect on the time spent licking” value [5, 12] was “no clear effects”, the “Licking time % change” value [5, 13] was −59% and the “Licking time (seconds) mean ± SEM” value [5, 13] was 78.9 ± 20.4 s. The “No. of flinches % change” value [5, 13] was −12%, the “No. of flinches mean ± SEM” value [5, 13] was 100.3 ± 22.3 and the “decrease in the time spent licking” value [5, 13] was 59%. For the same molecule, the “effect on the number of flinches as compared with vehicle controls” value ([5]; Example 7, lacosamide 10 and 20 mg/kg i.p.) was “did not clearly affect”.
